One compound from ChEMBL document CHEMBL4007479, “Immunoregulatory effect assessment of a novel melanin and its carboxymethyl derivative” (2017) can be followed below.

The structures appear in SMILES notation.

Holding throughout (format): functional
Test [1] deals with Mus musculus. Description: Immuno-regulatory activity in cyclophosphamide-induced immunocompromised Kunming mouse model assessed as MDA content in spleen at 50 mg/kg administered once daily via gavage for 30 consecutive days measured after 12 hrs of fasting following last dose on day 30 (reference value: 4.9 +/- 0.11).
The test system of test [2] is Mus musculus. Description: Immuno-regulatory activity in cyclophosphamide-induced immunocompromised Kunming mouse model assessed as peritoneal macrophage phagocytosis index at 200 mg/kg administered once daily via gavage for 30 consecutive days measured after 12 hrs of fasting following last dose by Giemsa staining based assay (reference value: 0.5 +/- 0.03).
Test [3] relates to Mus musculus. The experiment in a line: Immuno-regulatory activity in cyclophosphamide-induced immunocompromised Kunming mouse model assessed as body weight at 200 mg/kg administered once daily via gavage for 30 consecutive days measured after 12 hrs of fasting following last dose (reference value: 30.3 +/- […]).
In test [4] the test system is Mus musculus. Description: Immuno-regulatory activity in cyclophosphamide-induced immunocompromised Kunming mouse model assessed as GSH-PX activity in spleen at 50 mg/kg administered once daily via gavage for 30 consecutive days measured after 12 hrs of fasting following last dose on day 30 (reference value: 7.97 +/- 1.21).
Test [5] concerns Mus musculus. The experiment in a line: Immuno-regulatory activity in cyclophosphamide-induced immunocompromised Kunming mouse model assessed as peritoneal macrophage phagocytosis rate at 200 mg/kg administered once daily via gavage for 30 consecutive days measured after 12 hrs of fasting following last dose by Giemsa staining based assay (reference value: 21.33 +/- 0.98%).
In test [6] the test system is Mus musculus. The experiment in a line: Immuno-regulatory activity in cyclophosphamide-induced immunocompromised Kunming mouse model assessed as GSH-PX activity in spleen at 200 mg/kg administered once daily via gavage for 30 consecutive days measured after 12 hrs of fasting following last dose on day 30 (reference value: 7.97 +/- 1.21).
Test [7] concerns Mus musculus. Description: Immuno-regulatory activity in cyclophosphamide-induced immunocompromised Kunming mouse model assessed as GSH-PX activity in serum at 50 mg/kg administered once daily via gavage for 30 consecutive days measured after 12 hrs of fasting following last dose on day 30 (reference value: 5.66 +/- 0.17).
Test [8] relates to Mus musculus. Description: Immuno-regulatory activity in cyclophosphamide-induced immunocompromised Kunming mouse model assessed as SOD activity in kidney at 200 mg/kg administered once daily via gavage for 30 consecutive days measured after 12 hrs of fasting following last dose on day 30 (reference value: 198.82 +/- 9.98).
For test [9], the system named is Mus musculus. The experiment in a line: Immuno-regulatory activity in cyclophosphamide-induced immunocompromised Kunming mouse model assessed as SOD activity in liver at 200 mg/kg administered once daily via gavage for 30 consecutive days measured after 12 hrs of fasting following last dose on day 30 (reference value: 160.65 +/- 3.12).
Test [10] concerns Mus musculus. Description: Immuno-regulatory activity in cyclophosphamide-induced immunocompromised Kunming mouse model assessed as MDA content in serum at 200 mg/kg administered once daily via gavage for 30 consecutive days measured after 12 hrs of fasting following last dose on day 30 (reference value: 2.77 +/- 0.05).
The subject of test [11] is Mus musculus. Description: Immuno-regulatory activity in cyclophosphamide-induced immunocompromised Kunming mouse model assessed as macrophage elimination ability against foreign substances by measuring carbon clearance index at 50 mg/kg administered once daily via gavage for 30 consecutive days measured after 12 hrs of fasting following last dose (reference value: 2.68 +/- 0.3).

Test [12] relates to Mus musculus. Description: Immuno-regulatory activity in cyclophosphamide-induced immunocompromised Kunming mouse model assessed as peritoneal macrophage phagocytosis rate at 50 mg/kg administered once daily via gavage for 30 consecutive days measured after 12 hrs of fasting following last dose by Giemsa staining based assay (reference value: 21.33 +/- 0.98%).
The test system of test [13] is Mus musculus. The experiment in a line: Immuno-regulatory activity in cyclophosphamide-induced immunocompromised Kunming mouse model assessed as SOD activity in spleen at 50 mg/kg administered once daily via gavage for 30 consecutive days measured after 12 hrs of fasting following last dose on day 30 (reference value: 94.84 +/- 3.28).
Test [14] relates to Mus musculus. Description: Immuno-regulatory activity in cyclophosphamide-induced immunocompromised Kunming mouse model assessed as macrophage elimination ability against foreign substances by measuring carbon clearance index at 200 mg/kg administered once daily via gavage for 30 consecutive days measured after 12 hrs of fasting following last dose (reference value: 2.68 +/- 0.3).

In test [15] the test system is Mus musculus. Description: Immuno-regulatory activity in cyclophosphamide-induced immunocompromised Kunming mouse model assessed as GSH-PX activity in liver at 50 mg/kg administered once daily via gavage for 30 consecutive days measured after 12 hrs of fasting following last dose on day 30 (reference value: 9.52 +/- 0.26).
The test system of test [16] is Mus musculus. Description: Immuno-regulatory activity in cyclophosphamide-induced immunocompromised Kunming mouse model assessed as SOD activity in liver at 50 mg/kg administered once daily via gavage for 30 consecutive days measured after 12 hrs of fasting following last dose on day 30 (reference value: 160.65 +/- 3.12).
Test [17] has as its system Mus musculus. Description: Immuno-regulatory activity in cyclophosphamide-induced immunocompromised Kunming mouse model assessed as enhancement of T cell-mediated delayed-type hypersensitivity by measuring increase in paw weight at 50 mg/kg administered once daily via gavage for 30 consecutive days and SRBC immunization on day 26 measured after 12 hrs of fasting following last dose on day 30 relative to control.

Test [18] relates to Mus musculus. The experiment in a line: Immuno-regulatory activity in cyclophosphamide-induced immunocompromised Kunming mouse model assessed as MDA content in liver at 50 mg/kg administered once daily via gavage for 30 consecutive days measured after 12 hrs of fasting following last dose on day 30 (reference value: 3.34 +/- 0.18).
In test [19] the test system is Mus musculus. The experiment in a line: Immuno-regulatory activity in cyclophosphamide-induced immunocompromised Kunming mouse model assessed as MDA content in spleen at 200 mg/kg administered once daily via gavage for 30 consecutive days measured after 12 hrs of fasting following last dose on day 30 (reference value: 4.9 +/- 0.11).
Test [20] concerns Mus musculus. Description: Immuno-regulatory activity in cyclophosphamide-induced immunocompromised Kunming mouse model assessed as SOD activity in kidney at 50 mg/kg administered once daily via gavage for 30 consecutive days measured after 12 hrs of fasting following last dose on day 30 (reference value: 198.82 +/- 9.98).
The subject of test [21] is Mus musculus. The experiment in a line: Immuno-regulatory activity in cyclophosphamide-induced immunocompromised Kunming mouse model assessed as peritoneal macrophage phagocytosis index at 50 mg/kg administered once daily via gavage for 30 consecutive days measured after 12 hrs of fasting following last dose by Giemsa staining based assay (reference value: 0.5 +/- 0.03).

For test [22], the system named is Mus musculus. The experiment in a line: Immuno-regulatory activity in cyclophosphamide-induced immunocompromised Kunming mouse model assessed as recovery from thymus damage by measuring thymus weight index at 200 mg/kg administered once daily via gavage for 30 consecutive days measured after 12 hrs of fasting following last dose (reference value: 0.98 +/- 0.14).

With `O=C(O)C1c2cc(O)c(O)c3sc4c5c(O)[nH]c6cc(O)c(O)c(c65)c5c6ccc7ccc1c(c76)n(c23)c45` (configuration not stated), the Activity in the test with Mus musculus [1] was determined as 4.54; in the test with Mus musculus [3], 35.7 g; with Mus musculus [4], 8.76; with Mus musculus [5], 26.31%; in the test on Mus musculus [6] it was 11.99; in the test on Mus musculus [7], 5.76. Also, the Activity in the test with Mus musculus [8] was 233.49; with Mus musculus [9], 202.26; in the test on Mus musculus [10], 2; in the test with Mus musculus [12], 22.14%; in the test on Mus musculus [13], 106.25; in the test with Mus musculus [15] it was 9.76. For the same compound, the Activity in the test with Mus musculus [16] came to 174.51; with Mus musculus [17], 42.87%; in the test on Mus musculus [18], 2.99; in the test on Mus musculus [19], 3.13; with Mus musculus [20], 218.42. Besides, the Activity_index in the test on Mus musculus [2] is recorded as 0.79; with Mus musculus [11], 2.95; in the test with Mus musculus [14], 3.54; with Mus musculus [21] it was 0.53; in the test on Mus musculus [22], 1.37 mg/g.
